Assay results: US11053205B2, “Phenazine derivatives as antimicrobial agents” (University of Florida Research Foundation, Incorporated, priority 2017, dated 2021)
Converted amounts (≈) assume the structure as drawn. “And” between values parts separate entries of the source, which are not always exact repeats. Equal entries are not always repeated. Where two headings read alike, the source gives them in different places. Marks after values point to notes of the source that are not given here.

Experiments:
[1] = system: human red blood cells
[2] = system: MRSE 35984 biofilms; experiment: Calgary Biofilm Device (CBD) assay, MBC/MBEC; conditions: for MRSE 35984 MBEC / MRSE 35984 MBC: CBD; for MRSE 35984 MBEC: biofilm eradication; for MRSE 35984 MBC: planktonic killing; for MBC: Staphylococcus epidermidis, MRSE, read-out: MRSE 35984 MBC
[3] = system: VRE 700221; experiment: MIC, broth microdilution (CLSI); conditions: 16 to 18 hours at 37° C.
[4] = system: MRSE 35984; experiment: MIC, broth microdilution (CLSI); conditions: for MRSE 35984 MIC: 16 to 18 hours at 37° C.; for MIC: Staphylococcus epidermidis, MRSE, read-out: MRSE 35984 MIC, 16 to 18 hours at 37° C.
[5] = system: MRSA BAA-1707; experiment: MIC, broth microdilution (CLSI); conditions: 0.10 = lowest concentration tested; for MRSA BAA-1707 MIC: 16 to 18 hours at 37° C.
[6] = system: MRSA-2; experiment: MIC, broth microdilution (CLSI); conditions: for MRSA-2 MIC: 16 to 18 hours at 37° C.; for MIC: Staphylococcus aureus, MRSA, read-out: MRSA-2 MIC
[7] = system: MRSA BAA-1707 biofilms; experiment: Calgary Biofilm Device (CBD) assay, MBC/MBEC; conditions: for MRSA BAA-1707 MBC: planktonic killing; for MBC: Staphylococcus aureus, BAA1707|MRSA, read-out: MRSA BAA-1707 MBC, CBD, planktonic killing
[8] = system: VRE 700221 biofilms; experiment: Calgary Biofilm Device (CBD) assay, MBC/MBEC; conditions: for VRE 700221 MBC: planktonic killing; for MBC: Enterococcus, VRE, read-out: VRE 700221 MBC
[9] = system: M. tuberculosis H37Ra (ATCC 25177); experiment: MIC assay for Mycobacterium tuberculosis; type: cell-based; conditions: read-out: MtB H37Ra MIC
Procedure: (§1) The culture was then diluted with fresh medium until an OD600 of 0.01 was reached. […] The final DMSO concentration was maintained at 0.5%. […] Three rows were reserved for each compound. […] OD600 absorbance was recorded using SPECTRAMAX M5 (Molecular Devices). Data obtained from three independent experiments were analyzed using Excel.
as §1, with “SpectraMax” for “SPECTRAMAX”

[10] = system: HeLa cells
[11] = system: MRSA-2 biofilms; experiment: Calgary Biofilm Device (CBD) assay, MBC/MBEC; conditions: for MRSA-2 MBEC: CBD, biofilm eradication; for MBC: Staphylococcus aureus, MRSA, read-out: MRSA-2 MBC
[12] = system: MRSA-1; experiment: MIC, broth microdilution (CLSI)
[13] = system: MRSA BAA-1707; experiment: Metal(II)-cation co-treatment MIC assay; type: cell-based; conditions: Staphylococcus aureus
[14] = Mycobacterium tuberculosis, 168 h, seven days at 37° C.

CCN(CC)c1ccc2nc3c(O)c(Br)cc(Br)c3nc2c1Br [Compound 64A]
Hemolysis at 200 μM [1]: ≤1% | MRSE 35984 MBEC [2]: 6.25 µM | MRSE 35984 MBC [2]: 9.38 µM | VRE 700221 MIC [3]: 0.3^a μM | MRSE 35984 MIC [4]: 0.1^b μM | MRSA BAA-1707 MIC [5]: 0.15^a μM | MRSA-2 MIC [6]: 0.3^a μM | MRSA BAA-1707 MBC ([7]; CBD): 9.38 µM | VRE 700221 MBC ([8]; CBD): 2.35 µM

Cc1ccc2nc3c(O)ccc(Br)c3nc2c1 [Compound 66A]
VRE 700221 MIC [3]: 25 µM | MRSE 35984 MIC [4]: 12.5 µM | MRSA BAA-1707 MIC [5]: 12.5 ^ μM | MIC [9]: 25 µM (≈ 7.23 µg/mL)

CCc1ccc2nc3c(O)ccc(Br)c3nc2c1 [Compound 67A]
VRE 700221 MIC [3]: 12.5 µM | MRSE 35984 MIC [4]: 9.38^a μM | IC50 [10]: > 100 µM | MIC [9]: 25 µM (≈ 7.58 µg/mL)

Cc1cc(C)c2nc3c(Br)ccc(O)c3nc2c1 [Compound 68A]
VRE 700221 MIC [3]: 9.38^a μM | MRSE 35984 MIC [4]: 2.35^a μM | MRSA BAA-1707 MIC [5]: 4.69^a μM | IC50 [10]: > 100 µM | MIC [9]: 50 µM (≈ 15.2 µg/mL)

Oc1ccc(Br)c2nc3cc(Cl)ccc3nc12 [Compound 69A]
VRE 700221 MIC [3]: 25 µM | MRSE 35984 MIC [4]: 18.8^a μM | IC50 [10]: > 100 µM | MIC [9]: 6.25 µM (≈ 1.93 µg/mL)

CS(=O)(=O)N1CCN(C(=O)Oc2c(Br)cc(Br)c3nc4ccccc4nc23)C1=O [Compound 76A]
Hemolysis at 200 μM [1]: ≤1% | MRSE 35984 MBEC [2]: 37.5 µM | MRSE 35984 MBC [2]: 18.8 µM | VRE 700221 MIC [3]: 3.13 µM | MRSE 35984 MIC [4]: 1.56 µM | IC50 [10]: > 100 µM | MRSA BAA-1707 MBEC ([7]; CBD, biofilm eradication): 75 µM | MRSA BAA-1707 MBC ([7]; CBD): 37.5 µM | VRE 700221 MBEC ([8]; CBD, biofilm eradication): 9.38^a/9.38^a μM | VRE 700221 MBC ([8]; CBD): 9.38^a/9.38^a μM

O=C(O)CN(CCN(CC(=O)O)CC(=O)O)CC(=O)O [EDTA, ethylenediaminetetraacetic acid, reference compound]
MRSE 35984 MBEC [2]: > 2000 µM | MRSE 35984 MBC [2]: 1000 µM | MBC [2]: 1000 µM (≈ 292 µg/mL) | MRSA BAA-1707 MBC ([7]; CBD): >2000 />2000 μM | MBC [7]: > 2000 µM | MBC [8]: > 2000 µM | MRSA-2 MBEC [11]: 2000/>2000 μM | MBC [11]: 2000 µM (≈ 584 µg/mL)

Oc1c(Br)cc(Br)c2nc3c(O)c(Br)cc(Br)c3nc12 [HP 1-15]
VRE 700221 MIC [3]: >50 µM | MRSA-1 MIC ([12]; 16 to 18 hours at 37° C.): >50 ^ μM | MRSE 35984 MIC [4]: >50 µM | MRSA BAA-1707 MIC [5]: >50 µM | MRSA-2 MIC [6]: >50 µM

Oc1c(Br)cc(Br)c2nc3ccc(Cl)cc3nc12 [HP 1-22]
Hemolysis at 200 μM ([1]; human, 1 h, 200 μM, pH 7.2): ≤1% | MIC [9, 14]: 6.25 µM and 2.4 µg/mL

COCCOCCOCCOCCOC(=O)Oc1c(Br)cc(Br)c2nc3ccccc3nc12 [HP 1-24]
Hemolysis at 200 μM ([1]; human, 1 h, 200 μM, pH 7.2): 2.4% | HeLa cell cytotoxicity at 100 μM [10]: no HeLa cell cytotoxicity | MIC [9, 14]: 25 µM (≈ 14.7 µg/mL)

CO[C@H]1/C=C/O[C@@]2(C)Oc3c(C)c(O)c4c(O)c(c(/C=N/N5CCN(C)CC5)c(O)c4c3C2=O)NC(=O)/C(C)=C\C=C\[C@H](C)[C@H](O)[C@@H](C)[C@@H](O)[C@@H](C)[C@H](OC(C)=O)[C@@H]1C [Rifampin, reference compound]
MBC [2]: 3 µM (≈ 2.47 µg/mL) | MIC [4]: 0.1 µM (≈ 0.0823 µg/mL) | MIC [6]: 0.1 µM (≈ 0.0823 µg/mL) | MRSA-2 MBEC [11]: 46.9 µM | MBC [11]: 2 µM (≈ 1.65 µg/mL)

c1ccc(CN(CCN(Cc2ccccn2)Cc2ccccn2)Cc2ccccn2)nc1 [TPEN, N,N,N′,N′-tetrakis(2-pyridylmethyl)ethane-1,2-diamine, reference compound]
Hemolysis at 200 μM ([1]; human, 1 h, 200 μM, pH 7.2): ≤1% | MIC ([12]; Staphylococcus aureus, MRSA, read-out: MRSA-1 MIC): 75 µM (≈ 31.8 µg/mL) | MIC ([13]; copper(II) at 200 μM, read-out: MIC w/ Cu2+): 500 µM | MIC ([13]; iron(II) at 200 μM, read-out: MIC w/ Fe2+): 125 µM | MIC ([13]; magnesium(II) at 200 μM, read-out: MIC w/ Mg2+): 62.5 µM | MIC ([13]; no metal(II) cation added, read-out: MIC): 46.9 µM | MIC ([13]; zinc(II) at 200 μM, read-out: MIC w/ Zn2+): 250 µM | MIC [4]: 12.5 µM (≈ 5.31 µg/mL) | MRSA BAA-1707 MIC [5]: 50 ^ μM | MIC ([5]; Staphylococcus aureus, BAA1707|MRSA, read-out: MRSA BAA-1707 MIC, 16 to 18 hours at 37° C.): 46.9 µM (≈ 19.9 µg/mL) | MIC [6]: 50 µM (≈ 21.2 µg/mL) | MRSA BAA-1707 MBC ([7]; CBD): 250 µM | MBC [7]: 375 µM (≈ 159 µg/mL) | MBC [8]: 188 µM (≈ 79.8 µg/mL)

[H]/N=C(/N)N[C@H]1[C@H](O)[C@@H](O)[C@H](O[C@@H]2O[C@@H](C)[C@](O)(C=O)[C@H]2O[C@@H]2O[C@@H](CO)[C@H](O)[C@@H](O)[C@@H]2NC)[C@@H](N/C(N)=N\[H])[C@@H]1O [streptomycin, reference compound]
MIC ([9]; Mycobacterium tuberculosis, 168 h): 1.32 µM (≈ 0.768 µg/mL)
